Measurements: ChEMBL document CHEMBL3885881, “DrugMatrix”

Species on record: Rattus norvegicus
Assay: DrugMatrix - Regimen: Daily Repeat
Assay type: toxicity, organism-based, Sprague-Dawley
Set-up: regimen Daily Repeat, gender Male, age 6-8 weeks
Conditions: in vivo, sc, route subcutaneous, […]; for ABSOLUTE BASOPHIL / ABSOLUTE EOSINOPHIL / ABSOLUTE LYMPHOCYTE / ABSOLUTE MONOCYTE / BASOPHIL / EOSINOPHIL / ERYTHROCYTE COUNT / HEMATOCRIT / HEMOGLOBIN / LEUKOCYTE COUNT / LYMPHOCYTE / MEAN CORPUSCULAR HEMOGLOBIN / MEAN CORPUSCULAR HEMOGLOBIN CONCENTRATION / MEAN CORPUSCULAR VOLUME / MONOCYTE / NEUTROPHIL / NUCLEATED RED BLOOD CELLS / PLATELET COUNT: tissue Blood; for ALANINE AMINOTRANSFERASE / ALBUMIN / ASPARTATE AMINOTRANSFERASE / BLOOD UREA NITROGEN / CARBON DIOXIDE / CHLORIDE / CHOLESTEROL / CREATINE PHOSPHOKINASE / CREATININE / LACTATE DEHYDROGENASE / LIPASE / PHOSPHORUS / POTASSIUM / SODIUM / TOTAL BILIRUBIN / TOTAL PROTEIN / URIC ACID / GLUCOSE: tissue Plasma
[1] = 0 mg/kg, 72 h, dose level Control, time 3 day
[2] = 0 mg/kg, 120 h, dose level Control, time 5 day
[3] = 64 mg/kg, 72 h, dose level Low, time 3 day

Nc1ccc(S(N)(=O)=O)cc1 [SULFANILAMIDE]
ABSOLUTE BASOPHIL [1]: 0 CELLS/uL | ABSOLUTE EOSINOPHIL [1]: 92.33 CELLS/uL | ABSOLUTE LYMPHOCYTE [1]: 12247.5 CELLS/uL | ABSOLUTE MONOCYTE [1]: 389.67 CELLS/uL | BASOPHIL [1]: 0% | EOSINOPHIL [1]: 0.67% | ERYTHROCYTE COUNT [1]: 5.45 x10E6/uL | HEMATOCRIT [1]: 34.85% | HEMOGLOBIN [1]: 12.97 G/DL | LEUKOCYTE COUNT [1]: 14.05 x10E3/uL | LYMPHOCYTE [1]: 87.33% | MEAN CORPUSCULAR HEMOGLOBIN [1]: 23.78 pg | MEAN CORPUSCULAR HEMOGLOBIN CONCENTRATION [1]: 37.22 G/DL | MEAN CORPUSCULAR VOLUME [1]: 63.93 fL | MONOCYTE [1]: 2.67% | NEUTROPHIL [1]: 9.33% | NUCLEATED RED BLOOD CELLS [1]: 0 /100WBC | PLATELET COUNT [1]: 1174 x10E3/uL | ALANINE AMINOTRANSFERASE [1]: 48.83 u/L | ALBUMIN [1]: 4.23 G/DL | ASPARTATE AMINOTRANSFERASE [1]: 90 u/L | BLOOD UREA NITROGEN [1]: 15.33 mg/dL | CARBON DIOXIDE [1]: 23 mmol/L | CHLORIDE [1]: 103.5 MEQ/L | CHOLESTEROL [1]: 70.5 mg/dL | CREATINE PHOSPHOKINASE [1]: 651.83 u/L | CREATININE [1]: 0.22 mg/dL | LACTATE DEHYDROGENASE [1]: 165 u/L | LIPASE [1]: 9.33 u/L | PHOSPHORUS [1]: 12.03 mg/dL | POTASSIUM [1]: 6.17 MEQ/L | SODIUM [1]: 142.62 MEQ/L | TOTAL BILIRUBIN [1]: 0.2 mg/dL | TOTAL PROTEIN [1]: 5.73 G/DL | URIC ACID [1]: 1.77 mg/dL | ABSOLUTE BASOPHIL [2]: 0 CELLS/uL | ABSOLUTE EOSINOPHIL [2]: 0 CELLS/uL | ABSOLUTE LYMPHOCYTE [2]: 12736.67 CELLS/uL | ABSOLUTE MONOCYTE [2]: 253.5 CELLS/uL | BASOPHIL [2]: 0% | EOSINOPHIL [2]: 0% | ERYTHROCYTE COUNT [2]: 5.72 x10E6/uL | HEMATOCRIT [2]: 36.05% | HEMOGLOBIN [2]: 13.62 G/DL | LEUKOCYTE COUNT [2]: 14.18 x10E3/uL | LYMPHOCYTE [2]: 89.33% | MEAN CORPUSCULAR HEMOGLOBIN [2]: 23.83 pg | MEAN CORPUSCULAR HEMOGLOBIN CONCENTRATION [2]: 37.8 G/DL | MEAN CORPUSCULAR VOLUME [2]: 63.05 fL | MONOCYTE [2]: 1.83% | NEUTROPHIL [2]: 8.83% | NUCLEATED RED BLOOD CELLS [2]: 0 /100WBC | PLATELET COUNT [2]: 1322.17 x10E3/uL | ALANINE AMINOTRANSFERASE [2]: 48.83 u/L | ALBUMIN [2]: 4.27 G/DL | ASPARTATE AMINOTRANSFERASE [2]: 75.83 u/L | BLOOD UREA NITROGEN [2]: 15.5 mg/dL | CARBON DIOXIDE [2]: 30.5 mmol/L | CHLORIDE [2]: 102.33 MEQ/L | CHOLESTEROL [2]: 76.17 mg/dL | CREATINE PHOSPHOKINASE [2]: 205.5 u/L | CREATININE [2]: 0.2 mg/dL | GLUCOSE [2]: 149.67 mg/dL | LACTATE DEHYDROGENASE [2]: 124.5 u/L | LIPASE [2]: 10 u/L | PHOSPHORUS [2]: 10.93 mg/dL | POTASSIUM [2]: 6.59 MEQ/L | SODIUM [2]: 143.1 MEQ/L | TOTAL BILIRUBIN [2]: 0.2 mg/dL | TOTAL PROTEIN [2]: 6.05 G/DL | URIC ACID [2]: 1.45 mg/dL | ABSOLUTE BASOPHIL [3]: 0 CELLS/uL | ABSOLUTE EOSINOPHIL [3]: 0 CELLS/uL | ABSOLUTE LYMPHOCYTE [3]: 13215.67 CELLS/uL | ABSOLUTE MONOCYTE [3]: 191 CELLS/uL | BASOPHIL [3]: 0% | EOSINOPHIL [3]: 0% | ERYTHROCYTE COUNT [3]: 5.71 x10E6/uL | HEMATOCRIT [3]: 36.53% | HEMOGLOBIN [3]: 13.5 G/DL | LEUKOCYTE COUNT [3]: 14.17 x10E3/uL | LYMPHOCYTE [3]: 93.33% | MEAN CORPUSCULAR HEMOGLOBIN [3]: 23.67 pg | MEAN CORPUSCULAR HEMOGLOBIN CONCENTRATION [3]: 36.97 G/DL | MEAN CORPUSCULAR VOLUME [3]: 64.03 fL | MONOCYTE [3]: 1.33% | NEUTROPHIL [3]: 5.33% | NUCLEATED RED BLOOD CELLS [3]: 0 /100WBC | PLATELET COUNT [3]: 1225.33 x10E3/uL | ALANINE AMINOTRANSFERASE [3]: 53 u/L | ALBUMIN [3]: 4.13 G/DL | ASPARTATE AMINOTRANSFERASE [3]: 87 u/L | BLOOD UREA NITROGEN [3]: 16.33 mg/dL | CARBON DIOXIDE [3]: 25.33 mmol/L | CHLORIDE [3]: 103 MEQ/L | CHOLESTEROL [3]: 70.33 mg/dL | CREATINE PHOSPHOKINASE [3]: 269 u/L | CREATININE [3]: 0.24 mg/dL | GLUCOSE [3]: 150.67 mg/dL | LACTATE DEHYDROGENASE [3]: 408.33 u/L | LIPASE [3]: 10 u/L | PHOSPHORUS [3]: 13.03 mg/dL | POTASSIUM [3]: 6.94 MEQ/L | SODIUM [3]: 144.53 MEQ/L | TOTAL BILIRUBIN [3]: 0.27 mg/dL | TOTAL PROTEIN [3]: 5.7 G/DL | URIC ACID [3]: 1.7 mg/dL
